{"source": "patent US20060062866A1", "about": "“Starch-pomegranate juice complex as an HIV entry inhibitor and topical microbicide” (NEW YORK BLOOD CENTER, INC., priority 2004, published 2006)", "target": "T1, gp120-CD4 binding (Human immunodeficiency virus type 1 group M subtype B, UniProt P03375)", "T1 construct": "coated with 100 ng/well of either gp120 IIIB or gp120 BaL", "parameters": "species or system HIV-1", "conditions": "purified commercial compounds at 200 μg/ml", "description": "CD4-HIV-1 gp120 binding and its inhibition were measured by ELISA. Wells of 96-well polystyrene plates (Immulon II, Dynatech Laboratories, Inc., Chantilly, Va.) were coated with 100 ng/well of either gp120 IIIB or gp120 BaL, and post-coated as described [Neurath, A. R., Strick, N., Li, Y. Y., Debnath, A. K.: Cellulose acetate phthalate, a common pharmaceutical excipient, inactivates HIV-1 and blocks the coreceptor binding site on the virus envelope glycoprotein gp120, BMC Infect. Dis., (2001), 1:17]. […] The wells were washed 5× with TS. Biotinyl-CD4 (1 μg/ml) in TS-1% gelatin was added to the wells for 5 hours at 37° C. After washing 1× with TS-0.1% Tween 20 and 5× with TS, horseradish peroxidase (HRP)-streptavidin (0.625 μg/ml; Amersham, Arlington Heights, Ill.) in TS-2% gelatin-0.05% Tween 20 was added. After 30 minutes at 37° C., the wells were washed 4 x with TS-0.1% Tween 20 and 2× with TS. Bound HRP-was detected using a kit from Kirkegaard and Perry Laboratories Inc. (Gaithersburg, Md.) and the absorbance (A) read at 450 nm. […] In an alternative assay, CD4 (500 ng/ml) was mixed with biotinyl-gp120 (1 μg/ml) in the presence or absence of inhibitors for 30 minutes at 20° C. Serial dilutions of the mixtures were added to wells coated with the anti-CD4 mAb OKT 4 (Ortho-Clinical Diagnostics, Rochester, N.Y.) and captured biotinyl-gp120 was detected with HRP-streptavidin as described above. To measure binding to gp120 of antibodies to gp120 peptides, the respective rabbit antisera were diluted 50-fold in a mixture of FBS and goat serum (9:1) containing 0.1% Tween 20 (pH 8.0) and added to gp120 wells. Bound IgG was detected with HRP labeled anti-rabbit IgG (Sigma, St. Louis, Mo.; 1 μg/ml in TS-10% goat serum-0.1% Tween 20). […] Briefly, FLSC (125 ng/ml) in the absence or presence of graded amounts of inhibitors was added to Cf2Th/synCCR5 cells fixed with 5% formaldehyde in wells of 96-well plates."}
{"molecule": "O=C(O)/C=C/c1ccc(O)c(O)c1", "note": "[caffeic acid]", "values": [{"measurement": "blocking of gp120-CD4 binding (ELISA)", "result": "did not block"}]}
{"molecule": "catechin", "values": [{"measurement": "blocking of gp120-CD4 binding (ELISA)", "result": "did not block"}]}
{"molecule": "O=c1c(O)c(-c2ccc(O)c(O)c2)oc2cc(O)cc(O)c12", "note": "[quercetin]", "values": [{"measurement": "blocking of gp120-CD4 binding (ELISA)", "result": "did not block"}]}
{"molecule": "C[C@H]1[C@H](C)CC[C@]2(C(=O)O)CC[C@]3(C)C(=CC[C@@H]4[C@@]5(C)CC[C@H](O)C(C)(C)[C@@H]5CC[C@]43C)[C@H]12", "note": "[ursolic acid]", "values": [{"measurement": "blocking of gp120-CD4 binding (ELISA)", "result": "did not block"}]}
